ChEMBL document CHEMBL4130587, “Chemical Compounds as Inhibitors of Kinase Activity for the Treatment of Cancer and COPD” (ACS Med Chem Lett, 2017)

Key:
[1] = target: Phosphatidylinositol 4,5-bisphosphate 3-kinase catalytic subunit alpha isoform (Homo sapiens, UniProt P42336); test: Inhibition of GST-tagged PI3Kalpha […] (unknown origin) using PIP2 as subtrate after 1 hr in presence of biotin-labeled PIP3 by TR-FRET assay
[2] = target: Phosphatidylinositol 4,5-bisphosphate 3-kinase catalytic subunit beta isoform (Homo sapiens, UniProt P42338); test: Inhibition of GST-tagged PI3Kbeta […] (unknown origin) using PIP2 as subtrate after 1 hr in presence of biotin-labeled PIP3 by TR-FRET assay
Phosphatidylinositol 4,5-bisphosphate 3-kinase catalytic subunit beta isoform, sequence (P42338 whole entry, canonical isoform): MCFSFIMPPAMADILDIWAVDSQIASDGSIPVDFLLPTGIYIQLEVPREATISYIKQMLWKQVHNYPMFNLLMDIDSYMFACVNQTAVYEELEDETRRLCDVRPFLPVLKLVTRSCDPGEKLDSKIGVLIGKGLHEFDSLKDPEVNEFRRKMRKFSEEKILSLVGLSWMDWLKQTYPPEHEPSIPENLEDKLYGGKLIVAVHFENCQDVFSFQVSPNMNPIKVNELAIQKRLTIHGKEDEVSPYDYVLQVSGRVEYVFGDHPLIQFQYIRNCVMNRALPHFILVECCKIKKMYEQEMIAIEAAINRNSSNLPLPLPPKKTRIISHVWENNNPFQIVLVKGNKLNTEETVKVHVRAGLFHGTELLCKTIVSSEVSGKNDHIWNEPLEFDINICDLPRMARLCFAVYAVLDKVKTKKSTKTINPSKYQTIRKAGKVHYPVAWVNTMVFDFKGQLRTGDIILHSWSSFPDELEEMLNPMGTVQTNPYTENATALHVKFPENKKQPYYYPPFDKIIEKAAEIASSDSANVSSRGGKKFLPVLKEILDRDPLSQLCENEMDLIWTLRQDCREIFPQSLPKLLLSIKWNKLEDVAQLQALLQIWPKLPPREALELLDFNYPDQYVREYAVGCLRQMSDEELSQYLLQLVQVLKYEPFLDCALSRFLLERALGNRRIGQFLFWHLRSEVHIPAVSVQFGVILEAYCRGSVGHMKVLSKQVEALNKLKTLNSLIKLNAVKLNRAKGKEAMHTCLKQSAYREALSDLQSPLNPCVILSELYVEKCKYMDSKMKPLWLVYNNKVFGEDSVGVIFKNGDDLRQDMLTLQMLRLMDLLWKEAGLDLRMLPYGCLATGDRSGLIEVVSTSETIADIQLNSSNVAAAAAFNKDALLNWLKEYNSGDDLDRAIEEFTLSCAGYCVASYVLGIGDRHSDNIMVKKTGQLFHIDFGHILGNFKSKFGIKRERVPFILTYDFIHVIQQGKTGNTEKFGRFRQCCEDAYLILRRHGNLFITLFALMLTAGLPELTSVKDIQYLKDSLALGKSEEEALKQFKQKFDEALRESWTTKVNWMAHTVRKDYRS

[3] = target: T1, Phosphatidylinositol 4,5-bisphosphate 3-kinase catalytic subunit delta isoform (Homo sapiens, UniProt O00329); test: Inhibition of GST-tagged PI3Kdelta […] (unknown origin) using PIP2 as subtrate after 1 hr in presence of biotin-labeled PIP3 by TR-FRET assay
T1 sequence (O00329 whole entry): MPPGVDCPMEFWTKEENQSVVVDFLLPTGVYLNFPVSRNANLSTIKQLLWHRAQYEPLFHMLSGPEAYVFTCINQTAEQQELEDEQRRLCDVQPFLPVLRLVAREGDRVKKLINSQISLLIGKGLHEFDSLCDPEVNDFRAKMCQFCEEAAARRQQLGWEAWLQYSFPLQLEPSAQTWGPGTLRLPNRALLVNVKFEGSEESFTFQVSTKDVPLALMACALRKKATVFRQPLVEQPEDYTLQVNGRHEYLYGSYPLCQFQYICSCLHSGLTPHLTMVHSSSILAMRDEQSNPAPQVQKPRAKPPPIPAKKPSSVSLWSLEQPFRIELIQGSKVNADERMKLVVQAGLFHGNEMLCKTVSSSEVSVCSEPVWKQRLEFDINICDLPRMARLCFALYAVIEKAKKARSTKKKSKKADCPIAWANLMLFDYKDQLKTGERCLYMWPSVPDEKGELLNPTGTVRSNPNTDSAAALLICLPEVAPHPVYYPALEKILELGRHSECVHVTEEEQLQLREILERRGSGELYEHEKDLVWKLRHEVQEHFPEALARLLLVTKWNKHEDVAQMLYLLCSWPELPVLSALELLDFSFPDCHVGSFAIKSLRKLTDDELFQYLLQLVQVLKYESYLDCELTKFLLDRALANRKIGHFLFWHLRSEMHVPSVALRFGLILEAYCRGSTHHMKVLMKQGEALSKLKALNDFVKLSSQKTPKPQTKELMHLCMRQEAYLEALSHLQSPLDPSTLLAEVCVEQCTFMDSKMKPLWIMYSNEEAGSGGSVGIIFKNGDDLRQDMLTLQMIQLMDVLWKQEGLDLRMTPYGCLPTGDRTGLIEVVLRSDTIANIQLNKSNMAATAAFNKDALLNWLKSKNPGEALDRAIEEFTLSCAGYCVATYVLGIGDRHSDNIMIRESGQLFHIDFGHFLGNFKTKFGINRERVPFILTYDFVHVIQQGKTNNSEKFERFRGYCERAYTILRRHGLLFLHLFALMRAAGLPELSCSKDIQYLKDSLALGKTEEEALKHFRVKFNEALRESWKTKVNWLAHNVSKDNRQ

[4] = target: Phosphatidylinositol 4,5-bisphosphate 3-kinase catalytic subunit gamma isoform (Homo sapiens, UniProt P48736); test: Inhibition of GST-tagged PI3Kgamma […] (unknown origin) using PIP2 as subtrate after 1 hr in presence of biotin-labeled PIP3 by TR-FRET assay
Phosphatidylinositol 4,5-bisphosphate 3-kinase catalytic subunit gamma isoform, sequence (P48736 whole entry, canonical isoform): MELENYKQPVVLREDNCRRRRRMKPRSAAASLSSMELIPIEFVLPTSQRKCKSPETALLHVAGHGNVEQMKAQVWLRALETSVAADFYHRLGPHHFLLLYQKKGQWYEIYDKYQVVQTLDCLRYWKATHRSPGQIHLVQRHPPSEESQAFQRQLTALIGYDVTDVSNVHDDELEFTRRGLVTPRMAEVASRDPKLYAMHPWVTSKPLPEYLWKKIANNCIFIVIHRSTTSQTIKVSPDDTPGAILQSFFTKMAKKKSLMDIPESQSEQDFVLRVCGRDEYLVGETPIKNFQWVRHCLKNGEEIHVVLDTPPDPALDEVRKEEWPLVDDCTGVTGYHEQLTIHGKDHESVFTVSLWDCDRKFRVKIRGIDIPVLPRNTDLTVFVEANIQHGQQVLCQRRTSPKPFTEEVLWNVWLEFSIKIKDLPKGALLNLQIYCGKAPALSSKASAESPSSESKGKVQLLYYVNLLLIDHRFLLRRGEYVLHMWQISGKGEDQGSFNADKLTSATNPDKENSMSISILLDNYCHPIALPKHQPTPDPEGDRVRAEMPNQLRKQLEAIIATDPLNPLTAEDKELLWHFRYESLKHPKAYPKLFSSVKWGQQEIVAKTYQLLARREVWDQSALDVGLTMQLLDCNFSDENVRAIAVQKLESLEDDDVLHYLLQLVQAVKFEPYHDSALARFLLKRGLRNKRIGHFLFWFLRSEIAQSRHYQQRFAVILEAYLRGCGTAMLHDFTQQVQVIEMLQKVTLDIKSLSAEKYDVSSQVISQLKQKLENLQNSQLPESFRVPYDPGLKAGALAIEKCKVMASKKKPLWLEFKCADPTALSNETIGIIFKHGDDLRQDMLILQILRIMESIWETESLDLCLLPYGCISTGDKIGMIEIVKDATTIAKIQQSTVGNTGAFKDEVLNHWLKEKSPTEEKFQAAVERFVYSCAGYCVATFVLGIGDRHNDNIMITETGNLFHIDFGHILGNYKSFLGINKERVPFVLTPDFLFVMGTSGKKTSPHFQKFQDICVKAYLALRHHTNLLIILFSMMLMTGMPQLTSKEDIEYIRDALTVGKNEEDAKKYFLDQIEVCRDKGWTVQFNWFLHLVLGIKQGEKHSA

Phosphatidylinositol 4,5-bisphosphate 3-kinase catalytic subunit alpha isoform, sequence (P42336 whole entry, canonical isoform): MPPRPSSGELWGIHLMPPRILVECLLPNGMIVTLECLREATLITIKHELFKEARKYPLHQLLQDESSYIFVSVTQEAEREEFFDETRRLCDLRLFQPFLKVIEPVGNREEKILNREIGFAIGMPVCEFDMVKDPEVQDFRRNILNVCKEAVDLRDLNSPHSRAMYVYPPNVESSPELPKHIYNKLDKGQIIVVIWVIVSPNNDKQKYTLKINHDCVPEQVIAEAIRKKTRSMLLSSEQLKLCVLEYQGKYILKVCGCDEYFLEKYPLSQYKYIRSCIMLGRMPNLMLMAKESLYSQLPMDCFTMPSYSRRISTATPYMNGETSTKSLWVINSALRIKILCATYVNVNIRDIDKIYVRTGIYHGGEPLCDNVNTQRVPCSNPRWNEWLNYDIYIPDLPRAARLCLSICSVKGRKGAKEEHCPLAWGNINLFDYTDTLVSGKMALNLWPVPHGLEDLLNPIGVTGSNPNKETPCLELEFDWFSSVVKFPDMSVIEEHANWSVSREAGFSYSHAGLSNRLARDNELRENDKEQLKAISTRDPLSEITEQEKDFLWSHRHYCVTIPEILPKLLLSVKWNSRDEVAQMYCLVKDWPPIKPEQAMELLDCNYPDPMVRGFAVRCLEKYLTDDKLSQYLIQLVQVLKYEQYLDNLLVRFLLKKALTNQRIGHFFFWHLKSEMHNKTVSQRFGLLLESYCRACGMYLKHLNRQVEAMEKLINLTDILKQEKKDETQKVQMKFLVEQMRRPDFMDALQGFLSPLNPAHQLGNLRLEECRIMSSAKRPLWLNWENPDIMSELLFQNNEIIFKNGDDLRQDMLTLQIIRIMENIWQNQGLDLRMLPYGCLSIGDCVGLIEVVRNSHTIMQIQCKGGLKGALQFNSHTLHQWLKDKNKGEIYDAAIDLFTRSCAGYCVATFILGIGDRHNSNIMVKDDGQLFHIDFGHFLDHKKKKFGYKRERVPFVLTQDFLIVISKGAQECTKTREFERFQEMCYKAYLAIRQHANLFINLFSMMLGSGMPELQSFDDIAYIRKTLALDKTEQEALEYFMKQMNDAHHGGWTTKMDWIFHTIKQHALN

| IC50 [1] [µM] | IC50 [2] [µM] | IC50 [3] [µM] | IC50 [4] [µM] | Structure (SMILES) |
| --- | --- | --- | --- | --- |
| ≤ 10 | ≤ 10 | ≤ 10 | ≤ 10 | COc1ncc(N2CCOCC2)cc1S(=O)(=O)Nc1ccnc(-c2cc(F)c(CN3CCN(C(C)C)CC3)c(F)c2)c1 |
| ≤ 10 | ≤ 10 | ≤ 10 | ≤ 10 | COc1ncc(N2CCOCC2)cc1S(=O)(=O)Nc1ccnc(-c2ccc(CN3CCN(C(C)C)CC3)cc2)c1 |
| ≤ 10 | ≤ 10 | ≤ 10 | ≤ 10 | COc1ncc(N2CCOCC2)cc1S(=O)(=O)Nc1ccnc(-c2ccc(CN(C)C)cc2)c1 |
| ≤ 10 | ≤ 10 | ≤ 10 | ≤ 10 | COc1ncc(N2CCOCC2)cc1S(=O)(=O)Nc1ccnc(-c2ccc(CN3CCC(C)C3)cc2F)c1 (stereo not drawn) |
| ≤ 10 | ≤ 10 | ≤ 10 | ≤ 10 | COc1ncc(N2CCOCC2)cc1S(=O)(=O)N(c1ccnc(-c2ccc(CN3CCN(C(C)C)CC3)cc2F)c1)C(C)C |
| ≤ 10 | ≤ 10 | ≤ 10 | ≤ 10 | CCOC(=O)CN(c1ccnc(-c2ccc(CN3CCN(C(C)C)CC3)cc2F)c1)S(=O)(=O)c1cc(N2CCOCC2)cnc1OC |
| ≤ 10 | ≤ 10 | ≤ 10 | ≤ 10 | CN(C)c1ncc(N2CCOCC2)cc1S(=O)(=O)Nc1ccnc(-c2ccc(CN3CCN(C(C)(C)C)CC3)cc2F)c1 |
| ≤ 10 | ≤ 10 | ≤ 10 | ≤ 10 | COc1ncc(N2CCOCC2)cc1S(=O)(=O)Nc1ccnc(-c2ccc(CN3CCCCC3)cc2F)c1 |
| ≤ 10 | ≤ 10 | ≤ 10 | ≤ 10 | COc1ncc(N2CCOCC2)cc1S(=O)(=O)Nc1ccnc(-c2ccc(CN3CCN(C(C)(C)C)CC3)cc2F)c1 |
| ≤ 10 | ≤ 10 | ≤ 10 | ≤ 10 | COc1ncc(N2CCOCC2)cc1S(=O)(=O)Nc1ccnc(-c2ccc(CN3CCN(C4COC4)CC3)cc2F)c1 |
| ≤ 10 | ≤ 10 | ≤ 10 | ≤ 10 | COc1ncc(N2CCOCC2)cc1S(=O)(=O)Nc1ccnc(-c2ccc(CN3CCNCC3)cc2F)c1 |
| ≤ 10 | ≤ 10 | ≤ 10 | ≤ 10 | CCCN(c1ccnc(-c2ccc(CN3CCN(C(C)C)CC3)cc2F)c1)S(=O)(=O)c1cc(N2CCOCC2)cnc1OC |
| ≤ 10 | ≤ 10 | ≤ 10 | ≤ 10 | COc1ncc(N2CCOCC2)cc1S(=O)(=O)Nc1ccnc(-c2ccc(CN3CCN(C(C)(C)C)CC3)cc2)c1 |
| ≤ 10 | ≤ 10 | ≤ 10 | ≤ 10 | COc1ncc(N2CCOCC2)cc1S(=O)(=O)Nc1ccnc(-c2ccc(CN3CCN(C4CCC4)CC3)cc2)c1 |
| ≤ 10 | ≤ 10 | ≤ 10 | ≤ 10 | COc1ncc(N2CCOCC2)cc1S(=O)(=O)N(C)c1ccnc(-c2ccc(CN3CCN(C(C)(C)C)CC3)cc2F)c1 |
| ≤ 10 | ≤ 10 | ≤ 10 | ≤ 10 | COc1ncc(N2CCOCC2)cc1S(=O)(=O)Nc1ccnc(-c2cc(F)c(CN3CCN(C(C)C)CC3)cc2F)c1 |
| ≤ 10 | ≤ 10 | ≤ 10 | ≤ 10 | CCC(C)N1CCN(Cc2ccc(-c3cc(NS(=O)(=O)c4cc(N5CCOCC5)cnc4OC)ccn3)cc2)CC1 (stereo not drawn) |
| ≤ 10 | ≤ 10 | ≤ 10 | ≤ 10 | COc1ncc(N2CCOCC2)cc1S(=O)(=O)Nc1ccnc(-c2ccc(CN3CCCC3)c(F)c2)c1 |
| ≤ 10 | ≤ 10 | ≤ 10 | ≤ 10 | COc1ncc(N2CCOCC2)cc1S(=O)(=O)Nc1ccnc(-c2ccc(CN3CCN(C4COC4)CC3)cc2)c1 |

| IC50 [1] [µM] | IC50 [2] [µM] | IC50 [3] [µM] | IC50 [4] [µM] | Structure (SMILES) |
| --- | --- | --- | --- | --- |
| ≤ 10 | ≤ 10 | ≤ 10 | ≤ 10 | CCOc1ncc(N2CCOCC2)cc1S(=O)(=O)Nc1ccnc(-c2ccc(CN3C[C@@H](C)O[C@@H](C)C3)cc2F)c1 |
| ≤ 10 | ≤ 10 | ≤ 10 | ≤ 10 | COc1ncc(N2CCOCC2)cc1S(=O)(=O)Nc1ccnc(-c2ccc(CN3CCN(C(C)C)CC3)c(F)c2F)c1 |
| ≤ 10 | ≤ 10 | ≤ 10 | ≤ 10 | COc1ncc(N2CCOCC2)cc1S(=O)(=O)Nc1ccnc(-c2ccc(CN3C[C@@H](C)O[C@@H](C)C3)cc2F)c1 |
| ≤ 10 | ≤ 10 | ≤ 10 | ≤ 10 | COc1ncc(N2CCOCC2)cc1S(=O)(=O)Nc1ccnc(-c2cc(Cl)c(CN3CCN(C(C)C)CC3)cc2F)c1 |
| ≤ 10 | ≤ 10 | ≤ 10 | ≤ 10 | COc1ncc(N2CCOCC2)cc1S(=O)(=O)Nc1ccnc(-c2ccc(CN3CCN(C4CCC4)CC3)cc2F)c1 |
| ≤ 10 | ≤ 10 | ≤ 10 | ≤ 10 | COc1ncc(N2CCOCC2)cc1S(=O)(=O)Nc1ccnc(-c2ccc(CN3CCCC3C)cc2F)c1 (stereo not drawn) |
| ≤ 10 | ≤ 10 | ≤ 10 | ≤ 10 | COc1ncc(N2CCOCC2)cc1S(=O)(=O)Nc1ccnc(-c2ccc(CN3CCOCC3)cc2)c1 |
| ≤ 10 | ≤ 10 | ≤ 10 | ≤ 10 | COc1ncc(N2CCOCC2)cc1S(=O)(=O)N(C)c1ccnc(-c2ccc(CN3CCN(C(C)C)CC3)cc2F)c1 |
| ≤ 10 | ≤ 10 | ≤ 10 | ≤ 10 | COc1ncc(N2CCOCC2)cc1S(=O)(=O)Nc1ccnc(-c2ccc(CN3CCN(C(C)C)CC3)c(F)c2)c1 |
| ≤ 10 | ≤ 10 | ≤ 10 | ≤ 10 | COc1ncc(N2CCOCC2)cc1S(=O)(=O)Nc1ccnc(-c2ccc(CN3C[C@@H](C)O[C@@H](C)C3)cc2)c1 |
| ≤ 10 | ≤ 10 | ≤ 10 | ≤ 10 | COc1ncc(N2CCOCC2)cc1S(=O)(=O)Nc1ccnc(-c2ccc(CN3CCC(C(C)(C)O)CC3)cc2F)c1 |
| ≤ 10 | ≤ 10 | ≤ 10 | ≤ 10 | COc1ncc(N2CCOCC2)cc1S(=O)(=O)N(COC(=O)C(C)(C)C)c1ccnc(-c2ccc(CN3CCN(C(C)C)CC3)cc2F)c1 |
| ≤ 10 | ≤ 10 | ≤ 10 | ≤ 10 | COc1ncc(N2CCOCC2)cc1S(=O)(=O)Nc1ccnc(-c2c(F)cc(CN3CCN(C(C)C)CC3)cc2F)c1 |
| ≤ 10 | ≤ 10 | ≤ 10 | ≤ 10 | COCCN1CCN(Cc2ccc(-c3cc(NS(=O)(=O)c4cc(N5CCOCC5)cnc4OC)ccn3)c(F)c2)CC1 |
| ≤ 10 | ≤ 10 | ≤ 10 | ≤ 10 | CC(C)N1CCN(Cc2ccc(-c3cc(NS(=O)(=O)c4cc(N5CCOCC5)cnc4N(C)C)ccn3)c(F)c2)CC1 |
| ≤ 10 | ≤ 10 | ≤ 10 | ≤ 10 | COc1ncc(N2CCOCC2)cc1S(=O)(=O)Nc1ccnc(-c2ccc(CN3CCCC3)cc2F)c1 |
| ≤ 10 | ≤ 10 | ≤ 10 | ≤ 10 | CCN(c1ccnc(-c2ccc(CN3CCN(C(C)C)CC3)cc2F)c1)S(=O)(=O)c1cc(N2CCOCC2)cnc1OC |
| ≤ 10 | ≤ 10 | ≤ 10 | ≤ 10 | COc1ncc(N2CCOCC2)cc1S(=O)(=O)Nc1ccnc(-c2ccc(CN3CCN(C(C)C)CC3)cc2F)c1 |
